Results as given in US20170182015A1, “METHODS OF USING SNS-595 FOR TREATMENT OF CANCER SUBJECTS WITH REDUCED BRCA2 ACTIVITY” (Sunesis Pharmaceuticals, Inc., priority 2009, published 2017).

Columns and labels:
VC8 cells (BRCA2 mutant) = assay: Growth inhibition (proliferation) assay in BRCA2 mutant cells; assay type: cell-based, Chinese hamster; conditions: for IC50: Cricetulus griseus, V-C8, VC8 cells mutant for BRCA2, 4 hr treatment, 120 hr incubation, resazurin; for increase in sensitivity in cells mutant for BRCA2 as compared to cells expressing functional BRCA2: VC8 vs VC8-B2, ratio of IC50
Procedure: (§1) The VC8 and VC8-B2 cell lines originate from V79 Chinese hamster […] fibroblast cells. VC8 has a mutation in the brca2 gene and VC8-B2 is this cell line complemented with the human chromosome 13 (containing the brca2 gene; […] Zwet et al., Mol Cell Biol, 2002, 22(2):669-679). The influence of BRCA2 on sensitivity to SNS-595 was evaluated by a proliferation assay in Chinese hamster cells mutant (VC8) and complemented for functional BRCA2 (VC8-B2). […] The following protocol was used for the assay: 1. 4000 cells/well were plated in a 96-well plate such that half of the plate contained VC8 cells, and other half contained VC8-B2 cells. The last column was left cell-free as background control. 2. The plate was incubated at 37° C. with 5% CO2. 1. The media was removed and 50 μL of fresh media was added into each well. 2. […] 3. 100 μL from the first column was transferred into second column and mixed. 100 μL from the second column was transferred into third column and mixed and so on until end of plate. One column was left untreated. The plate was incubated at 37° C. with 5% CO2. […] After 4 hr treatment, plate was washed twice with 100 μL PBS and 250 μL media was added. The plate was incubated at 37° C. with 5% CO2. 1. After 120 hr incubation, the plate was washed with 100 μL PBS and 100 μL resaszurin (10 μg/mL in phenol red-free complete DMEM) was added. 2.

U-2 OS cells = assay: Colony outgrowth assay (clonogenic survival), wild-type vs BRCA2 siRNA depleted; assay type: cell-based, human; conditions: 14 days
Procedure: Activity of SNS-595 in these assays was evaluated by clonogenic survival and compared with doxorubicin. The following protocol was used for the assay:
1. 200,000 cells were plated in each of 2 wells in a 6-well plate, and incubated over night at 37° C. and 5% CO2 atmosphere.
A: Test: 50 μL of 2 μM siBRCA2 (si Genome SMARTpool, Dharmacon)+150 μL OptiMEM (Gibco)
B: Control (no siRNA): 200 μL OptiMEM
C: 2 μL DharmaFect 1 (Dharmacon)+198 μL OptiMEM
2. Reagents were allowed to stand at room temperature for 5 minutes.
3. Reagents A+C and B+C were mixed and allowed to stand at room temperature for 20 min.
4. The media in wells was replaced with 1.6 mL of antibiotic-free media (DMEM, Gibco).
5. 400 μL of reagents A+B or B+C were added and mixed in wells. The plate was incubated at 37° C.
1. After 24 hr of siRNA treatment, cells were trypsinized and counted.
2. Cells were plated in 100 mm dishes at 500 or 1000 cells/dish in 10 mL media and incubated for 4 hr.
3. After 4 hr, test substances were added and plates were incubated for 14 days.
1. The plates were harvested and cells were fixed in methylene blue (4g/L in methanol) and colonies containing more than 50 cells were counted.

[1] = system: SPD8 cells (hprt gene reversion by homologous recombination); assay: Recombination assay: HPRT mutation reversion frequency; assay type: cell-based, Chinese hamster; conditions: for reversion frequency: alone, SNS-595 2 μM, doxorubicin 0.5 μM, 4 hr treatment; for effect of S-phase block (aphidicolin co-treatment) on induced reversion rate / recombination events: co-treatment with aphidicolin 0.5 μM
Excerpt: (§2) The SPD8 cell line carries a spontaneously derived mutation in the hprt gene and was isolated as a 6-thioguanine (6TG) resistant clone from the V79 Chinese hamster fibroblast cell line. The mutation within the hprt gene is a tandem duplication of exon 7, intron 6, and the 3′ portion of exon 6 that results in expression of a non-functional HPRT protein (Darè et al., Somat Cell Mol Genet, 1996, 22:201-210; and Helleday et al., J Mol Biol, 1998, 279(4):687-694). This duplication can be lost through HR that revert the hprt gene to wild-type, which can be selected for in HAsT (50 μM hypoxanthine, 10 μM L-azaserine, 5 μM thymidine) (Helleday et al. 1998). The DMEM was supplemented with 6TG (5 μg/mL) in order to kill cells that undergo spontaneous reversion. The addition of 6TG at this concentration affects neither the growth rate of these mutants nor the recombination assay procedure.
(§3) Each flask (75 cm^2) was inoculated with 1.5×10^6 SPD8 cells 24 hr prior to treatment with SNS-595 (2 μM) or doxorubicin (0.5 μM) and in co-treatment with aphidicolin (0.5 μM). After 4 hr of treatment, flasks were rinsed twice with PBS and 20 mL DMEM was added. Cells were then incubated for 48 hr to recover before plating onto Petri dishes. Cloning efficiency was measured by plating 500 cells in 10 mL of medium, two Petri dishes per dose. HPRT+ revertants were selected for by plating 3×10^5 cells/dish in the presence of HAsT (50 μM hypoxanthine,10 μM L-azaserine, 5μM thymidine), three dishes per dose. After 7 and 10 days, respectively, the plates were harvested and the colonies were fixed and stained using methylene blue in methanol (4 g/L). Colonies containing more than 50 cells were counted.

[2] = system: VC8-B2 cells (complemented for functional BRCA2); assay: Growth inhibition (proliferation) assay in BRCA2 complemented cells; assay type: cell-based, Chinese hamster; conditions: Cricetulus griseus; VC8-B2 cells expressing functional BRCA2; 4 hr treatment, 120 hr incubation, resazurin
Procedure: as §1

SPD8 cells [3] = assay: Recombination assay: cloning efficiency; assay type: cell-based, Chinese hamster; conditions: SNS-595 2 μM, doxorubicin 0.5 μM; for cloning efficiency: alone, 4 hr treatment; for effect of aphidicolin (S-phase blocker) co-treatment on cytotoxicity: co-treatment with aphidicolin 0.5 μM
Excerpt: as §2, §3

SPD8 cells [4] = assay: Pulsed field gel electrophoresis (PFGE) of DNA fragments; assay type: cell-based, Chinese hamster
Excerpt: as §2
Two million (2×10^6) SPD8 cells were seeded in flasks (75 cm^2) and incubated overnight. Subsequently, cells were treated with SNS-595 (20 μM) or doxorubicin (3 μM) and in co-treatment with aphidicolin (3 μM) for 4 hr before being melted into agarose insert (1×10^6 cells/70 μL 1% InCert Agarose, BMA). Inserts were transferred to 0.5 M EDTA, 1% N-laurylsarcosyl and proteinase K (1 mg/mL) and incubated at 50° C. for 48 hr and thereafter washed four times in TE-buffer (2 hr between each wash) prior to loading onto an agarose separation gel (1% Chromosomal grade agarose, Bio-Rad). Separation was performed on a CHEF DR III system (BioRad; 120° field angle, 240 seconds switch time, 4 V/cm) for 18 hr or for 24 hours with 60 to 240 seconds switch time. The gel was stained with ethidium bromide for 5 hr and subsequently analyzed by scanning fluorescence reader (Molecular Imager FX, BioRad) using Quantative One software.

Row | SMILES | IC50 (VC8 cells (BRCA2 mutant)) | increase in sensitivity in cells mutant for BRCA2 as compared to cells expressing functional BRCA2 (VC8 cells (BRCA2 mutant)) | sensitivity of U-2 OS cells depleted for BRCA2 using siRNA relative to wild-type cells (U-2 OS cells) | reversion frequency [1] | effect of S-phase block (aphidicolin co-treatment) on induced reversion rate / recombination events [1] | IC50 [2] | cloning efficiency (SPD8 cells [3]) | effect of aphidicolin (S-phase blocker) co-treatment on cytotoxicity (SPD8 cells [3]) | production of small DNA fragments (SPD8 cells [4]; FIG. 5 and 6, SNS-595 20 μM, doxorubicin 3 μM, 4 hr, PFGE 18 hr and 24 hr runs) | production of small DNA fragments (SPD8 cells [4]; FIG. 7, 18 hr PFGE run, 240 seconds switch time) | production of small DNA fragments (SPD8 cells [4]; FIG. 8, 24 hr PFGE run, 60 to 240 seconds switch time)
1 | CN[C@H]1CN(c2ccc3c(=O)c(C(=O)O)cn(-c4nccs4)c3n2)C[C@@H]1OC [SNS-595, (+)-1,4-dihydro-7-[(3S,4S)-3-methoxy-4-(methylamino)-1-pyrrolidinyl]-4-oxo-1-(2-thiazolyl)-1,8-naphthyridine-3-carboxylic acid] | 140 nM | approximately 5 fold | 4.6 × | increased | no effect | 720 nM | significantly impaired | reduction in cytotoxicity |  |  | 
2 | COc1cccc2c1C(=O)c1c(O)c3c(c(O)c1C2=O)C[C@@](O)(C(=O)CO)C[C@@H]3O[C@H]1C[C@H](N)[C@H](O)[C@H](C)O1 [doxorubicin] | 50 nM | approximately 4 fold |  | increased | significantly reduced | 190 nM | significantly impaired | reduction in cytotoxicity | more small DNA fragments | more small DNA fragments | more small DNA fragments
